This passage reports HEK-TLR2 luciferase activity and HEK-TLR4 luciferase activity results from patent US20260000705A1, “LIPOPOLYSACCHARIDE FOR USE AS A MEDICAMENT” (priority 2022, published 2026).

In one experiment the target is TLR2/6 (Homo sapiens, UniProt O60603+Q9Y2C9). The experiment in a line: Luciferase reporter assay in HEK-293+TLR2/6 cells. To be noted: corrected on renilla activity; ratios compared to non-stimulated cells; cells lysed 24 h after ligand. It is filed as cell-based. Here is the method:
(§1) Stable immortalized HEK-293+TLR2/6 and HEK-293+TLR4/MD2/CD14 (Invitrogen) cells were seeded in 6-well plates in 1× DMEM supplemented with 5% FBS, 1 mM glutamine, amino acids not essential 1× and pyruvate 0.01%. At 80% confluency, pcon3A-luciferase (pcon3A motif responses to KNFB activation) and TK-renilla vectors (99:1 ratio, respectively) were transfected with metafectene. The transfection medium was changed after 24 hours, and the cells were seeded in 96-well plates. Ligands were added 24 hours later at 80% confluence and cells were lysed after 24 h. Luciferase activity was read using the TwinLite kit (Perkin Elmer) on a Fluo Star Optima (BMG) plate reader and corrected based on renilla activity (three replicates per condition). All ratios were compared to the control condition (non-stimulated cells). We used Pam3CSK4, FSL-1, and Escherichia coli LPS as control ligands with agonistic effect mediated by TLR2/1, TLR2/6, and TLR4 receptors, respectively. TNF alpha was used as a positive control in all cell lines.
For orientation: A reporter such as luciferase makes a cellular process visible.

The target of another experiment is TLR4/MD2/CD14 (Homo sapiens, UniProt O00206+Q9Y6Y9). The experiment in a line: Luciferase reporter assay in HEK-293+TLR4/MD2/CD14 cells. In kind it is cell-based. Particulars: corrected on renilla activity; ratios compared to non-stimulated cells; cells lysed 24 h after ligand. Here is the method:
as §1

Chain of TLR2/6 (O60603 21-784): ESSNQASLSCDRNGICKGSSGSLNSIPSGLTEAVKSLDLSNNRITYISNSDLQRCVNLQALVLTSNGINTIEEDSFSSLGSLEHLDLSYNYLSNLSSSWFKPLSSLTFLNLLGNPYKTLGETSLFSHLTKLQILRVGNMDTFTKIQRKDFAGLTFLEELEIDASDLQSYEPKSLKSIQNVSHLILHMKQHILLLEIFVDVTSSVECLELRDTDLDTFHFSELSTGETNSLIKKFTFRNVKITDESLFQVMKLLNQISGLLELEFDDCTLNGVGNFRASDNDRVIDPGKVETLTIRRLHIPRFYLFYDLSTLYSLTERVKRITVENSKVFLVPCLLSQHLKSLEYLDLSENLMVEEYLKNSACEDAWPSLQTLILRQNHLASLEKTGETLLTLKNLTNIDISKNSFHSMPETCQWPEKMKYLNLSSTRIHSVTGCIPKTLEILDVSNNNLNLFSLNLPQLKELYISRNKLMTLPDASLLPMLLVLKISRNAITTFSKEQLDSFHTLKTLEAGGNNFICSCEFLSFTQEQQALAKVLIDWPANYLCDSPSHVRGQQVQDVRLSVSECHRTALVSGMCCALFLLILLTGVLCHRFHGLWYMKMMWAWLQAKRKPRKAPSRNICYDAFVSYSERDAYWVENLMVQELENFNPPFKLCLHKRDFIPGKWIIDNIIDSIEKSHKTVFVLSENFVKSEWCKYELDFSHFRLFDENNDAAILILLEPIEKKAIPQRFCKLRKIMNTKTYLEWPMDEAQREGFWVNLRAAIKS
Chain of TLR2/6 (Q9Y2C9 32-796): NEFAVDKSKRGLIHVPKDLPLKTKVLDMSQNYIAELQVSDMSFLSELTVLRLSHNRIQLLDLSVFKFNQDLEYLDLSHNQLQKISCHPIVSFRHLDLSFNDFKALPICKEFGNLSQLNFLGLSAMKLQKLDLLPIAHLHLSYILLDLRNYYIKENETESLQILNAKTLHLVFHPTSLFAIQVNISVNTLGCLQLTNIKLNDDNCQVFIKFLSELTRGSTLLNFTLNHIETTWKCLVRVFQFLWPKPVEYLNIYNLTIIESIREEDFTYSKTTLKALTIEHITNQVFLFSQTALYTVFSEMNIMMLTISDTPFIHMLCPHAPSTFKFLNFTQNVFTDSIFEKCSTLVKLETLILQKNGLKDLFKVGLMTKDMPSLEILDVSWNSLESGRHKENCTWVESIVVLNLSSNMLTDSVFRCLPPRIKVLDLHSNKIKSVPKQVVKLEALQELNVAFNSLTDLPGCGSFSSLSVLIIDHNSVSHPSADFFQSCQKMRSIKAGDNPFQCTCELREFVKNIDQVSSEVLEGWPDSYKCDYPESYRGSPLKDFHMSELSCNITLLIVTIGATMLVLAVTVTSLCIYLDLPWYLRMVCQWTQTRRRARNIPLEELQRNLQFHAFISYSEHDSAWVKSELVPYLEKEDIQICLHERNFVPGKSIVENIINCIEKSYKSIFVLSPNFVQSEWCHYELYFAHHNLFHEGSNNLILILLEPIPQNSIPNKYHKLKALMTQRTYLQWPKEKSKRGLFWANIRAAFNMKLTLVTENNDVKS
Chain of TLR4/MD2/CD14 (Q9Y6Y9 19-160): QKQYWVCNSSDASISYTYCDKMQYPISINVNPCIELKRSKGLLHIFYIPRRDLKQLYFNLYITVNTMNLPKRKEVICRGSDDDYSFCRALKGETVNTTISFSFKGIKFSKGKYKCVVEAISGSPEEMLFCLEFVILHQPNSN
Chain of TLR4/MD2/CD14 (O00206 24-839): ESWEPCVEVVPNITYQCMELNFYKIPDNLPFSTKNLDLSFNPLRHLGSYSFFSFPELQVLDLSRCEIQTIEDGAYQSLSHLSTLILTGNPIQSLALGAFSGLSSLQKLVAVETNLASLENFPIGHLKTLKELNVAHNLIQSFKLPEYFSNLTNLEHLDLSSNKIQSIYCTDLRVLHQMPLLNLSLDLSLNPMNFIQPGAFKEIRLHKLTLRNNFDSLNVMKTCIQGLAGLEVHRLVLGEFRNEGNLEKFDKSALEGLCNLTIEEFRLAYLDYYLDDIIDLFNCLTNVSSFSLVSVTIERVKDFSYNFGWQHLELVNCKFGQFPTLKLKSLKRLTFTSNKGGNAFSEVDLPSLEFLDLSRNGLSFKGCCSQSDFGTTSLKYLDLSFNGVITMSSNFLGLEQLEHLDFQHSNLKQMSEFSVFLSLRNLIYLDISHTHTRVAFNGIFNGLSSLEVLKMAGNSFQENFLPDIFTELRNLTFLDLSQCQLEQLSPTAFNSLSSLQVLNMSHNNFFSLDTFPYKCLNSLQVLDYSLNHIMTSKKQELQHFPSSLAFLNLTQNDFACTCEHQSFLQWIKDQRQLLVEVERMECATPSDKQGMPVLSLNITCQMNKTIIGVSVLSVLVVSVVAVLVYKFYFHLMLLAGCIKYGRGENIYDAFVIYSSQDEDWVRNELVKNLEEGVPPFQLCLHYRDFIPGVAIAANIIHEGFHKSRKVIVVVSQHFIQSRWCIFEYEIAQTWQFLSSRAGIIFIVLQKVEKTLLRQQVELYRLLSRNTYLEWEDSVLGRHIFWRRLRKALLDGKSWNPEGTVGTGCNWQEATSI

On to Pam3CSK4, for which, at TLR2/6, the HEK-TLR2 luciferase activity was 4.079 fold vs non-stimulated cells. Also, the HEK-TLR4 luciferase activity on TLR4/MD2/CD14 is reported as 1.112 fold vs non-stimulated cells.

For the substance FSL-1, the HEK-TLR2 luciferase activity on TLR2/6 was 2.195 fold vs non-stimulated cells. In addition, on TLR4/MD2/CD14, the HEK-TLR4 luciferase activity is listed as 1.123 fold vs non-stimulated cells.
